According to patent US8586291B2 (priority 2001, dated 2013):

Tests used:
[1] = tested on: Ba/F3 + IL-3 (BCR-ABL-negative parental cells); test: Growth inhibition, viable cells by trypan blue dye exclusion; type: cell-based, murine; conditions: Mus musculus, BaF3, concentration reducing number of viable cells by 50%, read-out: MEAN IC50 ± S.D.
[2] = tested on: Ba/F3 P210 WT; test: as above; type: cell-based, murine; conditions: Mus musculus, BaF3, concentration reducing number of viable cells by 50%, read-out: MEAN IC50 ± S.D.
[3] = tested on: Ba/F3 P210 T315I; test: as above; type: cell-based, murine; conditions: Mus musculus, BaF3, concentration reducing number of viable cells by 50%, read-out: MEAN IC50 ± S.D.
[4] = tested on: Ba/F3 P210 E255K; test: as above; type: cell-based, murine; conditions: Mus musculus, BaF3, concentration reducing number of viable cells by 50%, read-out: MEAN IC50 ± S.D.
[5] = tested on: wild-type BCR-ABL-expressing Ba/F3 cells; test: CRKL phosphorylation, western blot and densitometry; type: cell-based, murine; conditions: 24 hours
[6] = tested on: T315I BCR-ABL-expressing Ba/F3 cells; test: as above; type: cell-based, murine; conditions: 24 hours
[7] = tested on: E255K BCR-ABL-expressing Ba/F3 cells; test: as above; type: cell-based, murine; conditions: 24 hours
[8] = tested on: wild-type BCR-ABL; test: BCR-ABL protein degradation, anti-ABL western blot in Ba/F3 cells; conditions: 24 hours
[9] = tested on: T315I BCR-ABL; test: as above; conditions: 24 hours
[10] = tested on: E255K BCR-ABL; test: as above; conditions: 24 hours
[11] = tested on: v-Src versus c-Src; conditions: cited from earlier work

SMILES	IC50 [1] [µM]	IC50 [2] [µM]	IC50 [3] [µM]	IC50 [4] [µM]	concentration at which significant changes in CRKL phosphorylation were observed [5] [µM]	concentration at which CRKL phosphorylation was significantly inhibited [6] [µM]	concentration at which CRKL phosphorylation was significantly inhibited [7] [µM]	concentration at which BCR-ABL protein levels decrease [8] [µM]	concentration at which BCR-ABL protein levels decrease [9] [µM]	concentration at which virtually no BCR-ABL protein was detectable [9] [µM]	concentration at which BCR-ABL protein levels decrease [10] [µM]	concentration at which virtually no BCR-ABL protein was detectable [10] [µM]	fold resistance of v-Src versus c-Src to kinase inhibition [11]
C=CCNC1=C2C[C@@H](C)C[C@H](OC)[C@H](O)[C@@H](C)/C=C(\C)[C@H](OC(N)=O)[C@@H](OC)/C=C\C=C(/C)C(=O)NC(=CC1=O)C2=O [17-AAG, 17-allylaminogeldanamycin]	12.4 ± 0.3	5.2 ± 2.4	2.3 ± 0.4	1 ± 0.2	5.0	0.5	0.5	0.5 to 1.0	0.5	1.0	0.5	1.0	
COC1=C2C[C@@H](C)C[C@H](OC)[C@H](O)[C@@H](C)/C=C(\C)[C@H](OC(N)=O)[C@@H](OC)/C=C\C=C(/C)C(=O)NC(=CC1=O)C2=O [GA, Geldanamycin]	27.3 ± 14.1	4.9 ± 1.6	1.8 ± 2.1	2.6 ± 2.4				1.0	0.5		0.5		
Cc1ccc(-c2nn(C(C)(C)C)c3ncnc(N)c23)cc1 [PP1]													approximately 50 fold
